For three molecules, MIC results are on record in publication PMC6689975, “Novel Cell Wall Antifungals Reveal a Special Synergistic Activity in pbr1 Mutants Resistant to the Glucan Synthesis Antifungals Papulacandins and Echinocandins” (Frontiers in Microbiology, 2019).

≈ marks a conversion by molar mass, not a printed value. Like-named read-outs stand apart in the source and are kept apart here. A value given as a limit tells only on which side of the number the result lay.

Common to all, as to assay: microbe, parasite or virus in culture
The subject of test [1] is Candida albicans C. a.^f (Tables 5, 6). Further details: species or system yeast; micro tube dilution MIC in YES (± 1.2 M sorbitol), complete growth inhibition by turbidity. The following applies: 48 h. The procedure: (§1) Standard YEPD (Yeast Extract, Peptone, Dextrose) ([Sherman, 1990]), YEPD+S (YEPD with 1.2M sorbitol), YES (Yeast Extract, Dextrose and Supplements of Adenine, Histidine, Leucine, Uracil and Lysine) ([Alfa et al., 1993]) and YES+S (YES with 1.2 M sorbitol) ([Ribas et al., 1991]; [Ishiguro et al., 1997]), media were used for determination of MIC values of the tested compounds. A stock solution of 10 mg/ml of each tested compounds was prepared in DMSO and serial dilutions in DMSO were prepared. The final concentration of DMSO was 2% in the YEPD medium. […] The serial dilutions of compounds were dispensed into test tubes with 1 ml of YEPD or YEPD+S to make final concentrations of 200, 100, 50, 25, 12.5, 6.26, 3.125, 1.6, 0.8 and 0.4 μg/ml. The tested yeast strains were previously grown in YEPD, YEPD+S, YES or YES+S agar plates at 30°C for 48 h. Micro-culture assays of large numbers of samples were analyzed as described) ([Martins et al., 2011]). Essentially early log-phase cells were grown in YEPD, YEPD+S, YES or YES+S (1.2 M sorbitol) medium at 30°C, and diluted to cell density of 4 X 10^6 cells/ml in YEPD, YEPD+S, YES or YES+S medium and aliquots of 100 μl were dispensed into each small test tube (3 ml test tube size). Then, another 100 μl of YEPD, YEPD+S, YES or YES+S with the corresponding dilution of each compound at 2X concentration (4% DMSO) was added. The final volume was 200 μl, with the cells diluted to of 2 X 10^6 cells/ml and each compound diluted to 1X final concentration, containing increasing concentrations of antifungal (0, 1, 2, 5, 10, 20, 50, 100 and 200 μg/ml) or an equivalent volume of solvent (2% DMSO). The cells were grown at 30°C in an orbital roller and turbidity was analyzed after 24 and 48 h of incubation. The MIC was determined as the minimal concentration of tested compound that produced complete cell growth inhibition and kept the medium clear. The MIC values were calculated from at least three independent experiments.

For test [2], the system named is T1, Saccharomyces cerevisiae S. c.^d (wild-type CVX12-3A).
T1 construct: CVX12-3A
Further details: species or system yeast; micro tube dilution MIC in YES (± 1.2 M sorbitol), complete growth inhibition by turbidity. The following applies: 48 h. On the procedure:
as §1

The test system of test [3] is T2, Schizosaccharomyces pombe S. p.^a (wild-type 972 h-).
T2 construct: 972 h-
Also on record: species or system yeast; micro tube dilution MIC in YES (± 1.2 M sorbitol), complete growth inhibition by turbidity. Particulars: 48 h. On the procedure:
as §1

Test [4] has as its system Candida albicans C. a.^f (Table 4). Also on record: species or system yeast; tube dilution MIC in YEPD (± 1.2 M sorbitol), complete growth inhibition by turbidity. The following applies: 48 h, YEPD + 1.2 M sorbitol. On the procedure: as §1, with “h. For inoculation of YEPD or YEPD+S macro test tubes a suspension of tested fungus was produced with 10^5 cfu/ml (cfu - colony forming unit). 10 μl of suspension was used for inoculation of each tube. After 48 h incubation at 30°C the tubes were checked. The MIC value is the lowest concentration of the tested compound that could inhibit the fungal growth and the medium remained clear. From each tube 10 μl culture was plated on YEPD agar medium to check the contamination. The MIC tests were carried out in three parallels.” for “h.”

The subject of test [5] is Candida albicans C. a.^h (Table 4). Further details: species or system yeast; tube dilution MIC in YEPD (± 1.2 M sorbitol), complete growth inhibition by turbidity. The following applies: 48 h, YEPD + 1.2 M sorbitol. On the procedure: as §1, with “h. For inoculation of YEPD or YEPD+S macro test tubes a suspension of tested fungus was produced with 10^5 cfu/ml (cfu - colony forming unit). 10 μl of suspension was used for inoculation of each tube. After 48 h incubation at 30°C the tubes were checked. The MIC value is the lowest concentration of the tested compound that could inhibit the fungal growth and the medium remained clear. From each tube 10 μl culture was plated on YEPD agar medium to check the contamination. The MIC tests were carried out in three parallels.” for “h.”

Test [6] relates to T1, Saccharomyces cerevisiae S. c.^d (wild-type CVX12-3A). Further details: species or system yeast; tube dilution MIC in YEPD (± 1.2 M sorbitol), complete growth inhibition by turbidity. The following applies: 48 h, YEPD + 1.2 M sorbitol. On the procedure:
as §1, with “h. For inoculation of YEPD or YEPD+S macro test tubes a suspension of tested fungus was produced with 10^5 cfu/ml (cfu - colony forming unit). 10 μl of suspension was used for inoculation of each tube. After 48 h incubation at 30°C the tubes were checked. The MIC value is the lowest concentration of the tested compound that could inhibit the fungal growth and the medium remained clear. From each tube 10 μl culture was plated on YEPD agar medium to check the contamination. The MIC tests were carried out in three parallels.” for “h.”

Test [7] concerns T2, Schizosaccharomyces pombe S. p.^a (wild-type 972 h-). Further details: species or system yeast; tube dilution MIC in YEPD (± 1.2 M sorbitol), complete growth inhibition by turbidity. The following applies: 48 h, YEPD + 1.2 M sorbitol. On the procedure: as §1, with “h. For inoculation of YEPD or YEPD+S macro test tubes a suspension of tested fungus was produced with 10^5 cfu/ml (cfu - colony forming unit). 10 μl of suspension was used for inoculation of each tube. After 48 h incubation at 30°C the tubes were checked. The MIC value is the lowest concentration of the tested compound that could inhibit the fungal growth and the medium remained clear. From each tube 10 μl culture was plated on YEPD agar medium to check the contamination. The MIC tests were carried out in three parallels.” for “h.”

For the molecule `CC[C@H](C)C[C@H](C)CCCCCCCCC(=O)N[C@H]1C[C@@H](O)[C@@H](NCCN)NC(=O)[C@@H]2[C@@H](O)CCN2C(=O)[C@H]([C@H](O)CCN)NC(=O)[C@H]([C@H](O)[C@@H](O)c2ccc(O)cc2)NC(=O)[C@@H]2C[C@@H](O)CN2C(=O)[C@H]([C@@H](C)O)NC1=O` [caspofungin], the MIC stood at 50 mg/L (≈ 45.7 µM) in test [1] (read-out: MIC), 0.5 mg/L (≈ 0.457 µM) in test [2] (read-out: MIC) and 10 mg/L (≈ 9.15 µM) in test [3] (read-out: MIC).
For `O=c1oc2ccc3ccccc3c2cc1-c1ccccc1CO` [compound 12], the MIC in test [4] was 100 mg/L; in test [5] it was 100 mg/L; in test [6] it was 50 mg/L; in test [7] it was 50 mg/L; in test [1] (YES + 1.2 M sorbitol) it was above 200 mg/L; in test [2] (YES + 1.2 M sorbitol), above 200 mg/L. Further, the MIC in test [3] (YES + 1.2 M sorbitol) was above 200 mg/L.
Regarding `O=c1oc2ccccc2cc1-c1ccccc1CO` [compound 15], the MIC in test [4] is 25 mg/L; in test [5], above 200 mg/L; in test [6] it was 100 mg/L; in test [7], 200 mg/L; in test [1] (YES + 1.2 M sorbitol) it was above 200 mg/L; in test [2] (YES + 1.2 M sorbitol), above 200 mg/L. The MIC in test [3] (YES + 1.2 M sorbitol) was above 200 mg/L.
